In US20130039904A1, “GAMBOGIC ACID CYCLIZATION ANALOGUES, THEIR PREPARATION METHOD AND APPLICATION THEREOF” (Liaoning Lifeng Scientific & Technology Development Company …, priority 2009, published 2013):
In brackets after ≈: the same amount, converted by molar mass. Like-named read-outs stand apart in the source and are kept apart here.

Assays:
[1] = Body weight of S180 sarcoma-bearing mice; conditions: iv
Description: (§1) Test animals: Kunming kinds of healthy mice (19-21 g), 10 mice (5 male and 5 female)/group, from Beijing Institute of Military Medical Sciences Animal Center.
(§2) Xenografts cultured S180 tumor cells were implanted subcutaneously into the flank region of mice and tumors were allowed to grow to the desired average size of 100 mg. The mice were randomized into control and treatment groups with 10 mice per group. The control group was injected with the vehicle used to dissolve the drug. Other groups received the test compounds (example compound 5, 9, 10, 11, 13, 18, 19, 22, 24, 35, 306 and positive group, cyclophosphamide (CTX) and 5-fluorouracil (5-FU)) at the dose and schedule as indicated in Table VI. Injections were I.V. via the tail vein.

mice sarcoma S180 = assay: Growth inhibition of S180 sarcoma in mice; assay type: in vivo, Kunming mice; parameters: Inhibition rate (%): concentration or dose not given beside the values; conditions: for Tumor weight / Inhibition rate (%): S180 sarcoma, Kunming mice, iv; for Inhibition rate (%): *P<0.01, **p<0.001 vs control; for anti-tumor efficacy, statistical significance: S180 sarcoma in mice, in words
Description: as §1
Tumor strains: mice sarcoma S180 for ascites passaged from Beijing Academy of Military Medical Institute of Pharmacology.
as §2

[2] = test system: human colorectal cancer cell line HT29; assay: In vitro anti-cancer cell experiment (MTT), HT29; assay type: cell-based; conditions: for IC50: Homo sapiens, HT-29; for anti-proliferative effect on HT29: HT29, in words
Description: (§3) a. Cell lines: Human pancreatic cancer cell line Panc-1, human colorectal cancer cell line HT29 and human lung cancer cell line NCI—H460; the medium: s DMEM (Gibco BRL), containing 10% fetal calf serum (Gibco BRL) and 2 mM L-glutamine (Gibco BRL).
(§4) b. Test samples: example compounds 5, 9, 10, 22 and 24. The samples were dissolved in dimethyl sulfoxide (DMSO, Sigma, United States) and medium was added to the final concentration of 0.5%. Cisplatin was as positive control of (CDDP, purity 96%, from Kunming Institute of Precious Metals).
(§5) c. Method: cells were digested with trypsin and dispersed into single cells in the medium containing penicillin (25 U/ml) and streptomycin (25 μg/ml). The cells were seeded in 96-well culture plates (Corning Incorporated), at 37° C., in a humidified atmosphere with 5% CO2 present for 24 hours. The culture medium was removed, […] test compounds were added, cultured for 48 hours. Culture medium was removed and […] (MTT, USA Sigma products) was added. The result was assayed by SK601-based microplate reader (Japan Seikagaku company's products), 570 nm/630 nm optical density (OD).
(§6) Calculation of cell viability: (Experimental group OD/control OD)×100%; Positive control CDDP was treated in the same way.

[3] = test system: Human pancreatic cancer cell line Panc-1; assay: In vitro anti-cancer cell experiment (MTT), Panc-1; assay type: cell-based; conditions: for anti-proliferative effect on Panc-1: Panc-1, in words
Description: as §3, §4, §5, §6

[4] = test system: human lung cancer cell line NCI-H460; assay: In vitro anti-cancer cell experiment (MTT), NCI-H460; assay type: cell-based
Description: as §3, §4, §5, §6

[5] = HT29 cells, 48 hours, MTT, read-out: IC50 HT29
[6] = NCI-H460 cells, 48 hours, MTT, read-out: IC50 NCI-H460
[7] = HT29, text value, P<0.05, read-out: IC50 (anti-proliferative effect on HT29)
[8] = NCI-H460, text value, P<0.05, read-out: IC50 (anti-proliferative effect on NCI-H460)

| SMILES | body Weight (g) After ad. ([1]; mouse, in vivo) [g] | body Weight (g) Before ad. ([1]; mouse, in vivo) [g] | Tumor weight (mice sarcoma S180) [g] | Inhibition rate (%) (mice sarcoma S180) | IC50 [2, 5] [µg/mL] | body Weight (g) After ad. ([1]; after administration, S180 mice) [g] | body Weight (g) Before ad. ([1]; before administration, S180 mice) [g] | anti-tumor efficacy, statistical significance (mice sarcoma S180) | anti-proliferative effect on Panc-1 [3] | anti-proliferative effect on HT29 [2] | IC50 [4, 6] [nM] | IC50 [2, 7] [µg/mL] | IC50 [4, 8] [µg/mL] | IC50 ([3]; Homo sapiens, Panc-1, text value, P<0.05, read-out: IC50 (anti-proliferative effect on Panc-1)) [µg/mL] |
| --- | --- | --- | --- | --- | --- | --- | --- | --- | --- | --- | --- | --- | --- | --- |
| COC(=O)/C(C)=C\CC12OC(C)(C)C3CC(C1=O)C(N1CCOCC1)C1C(=O)c4c(OC(=O)CCl)c5c(c(CC=C(C)C)c4OC132)OC(C)(CCC=C(C)C)C=C5 (stereo not shown) [Compound 13] | 27.59 ± 2.52 | 21.76 ± 1.93 | 1.06 ± 0.70 | 45** % | – | – | – | – | – | – | – | – | – | – |
| O=c1[nH]cc(F)c(=O)[nH]1 [Compound 5-FU, 5-fluorouracil, reference compound] | 28.55 ± 2.38 | 22.59 ± 1.46 | 1.18 ± 0.49 | 42.8* % | 14.4 (≈ 110 µM) | – | – | – | – | – | – | – | – | – |
| O=P1(N(CCCl)CCCl)NCCCO1 (stereo not shown) [CTX, cyclophosphamide, reference compound] | – | – | 1.02 ± 0.88 | 46.5* % | – | 26.32 ± 3.58 | 21.48 ± 1.60 | – | – | – | – | – | – | – |
| COC(=O)/C(C)=C\CC12OC(C)(C)C3CC(C=C4C(=O)c5c(OC(=O)CCC(=O)N6CCN(C)CC6)c6c(c(CC=C(C)C)c5OC431)OC(C)(CCC=C(C)C)C=C6)C2=O (stereo not shown) [Compound 11] | 26.30 ± 3.62 | 19.92 ± 1.47 | 1.35 ± 0.59 | 31.01* % | – | – | – | – | – | – | – | – | – | – |
| COC(=O)/C(C)=C\CC12OC(C)(C)C3CC(C1=O)C1C4=C(c5ccccc5C4=O)N4CCNC45c4c(O)c6c(c(CC=C(C)C)c4OC32C15)OC(C)(CCC=C(C)C)C=C6 (stereo not shown) [Compound 306] | 26.98 ± 3.02 | 20.75 ± 1.33 | 1.29 ± 0.49 | 36.77* % | – | – | – | – | – | – | – | – | – | – |
| COC(=O)/C(C)=C\CC12OC(C)(C)C3CC(C1=O)C1C4=C(Nc5nccn51)c1c(OCCNCCO)c5c(c(CC=C(C)C)c1OC432)OC(C)(CCC=C(C)C)C=C5 (stereo not shown) [Compound 35] | 26.86 ± 1.81 | 20.08 ± 1.92 | 0.78 ± 0.33 | 59.25** % | – | – | – | statistically significant | – | – | – | – | – | – |
| COC(=O)/C(C)=C\CC12OC(C)(C)C3CC(C1=O)C1C4=C(Nc5nccn51)c1c(O[C@H]5O[C@@H](CO)[C@H](O)[C@@H](O)[C@@H]5O)c5c(c(CC=C(C)C)c1OC432)OC(C)(CCC=C(C)C)C=C5 (stereo partly shown) [Compound 24] | 27.61 ± 2.89 | 20.71 ± 1.75 | 0.65 ± 0.37 | 62.87** % | 54.1 (≈ 62.2 µM) | – | – | statistically significant | showed anti-proliferative effect | showed anti-proliferative effect | 13.7 | – | – | – |
| COC(=O)/C(C)=C\CC12OC(C)(C)C3CC(C1=O)C1C4=C(Nc5ncnn51)c1c(O)c5c(c(CC=C(C)C)c1OC432)OC(C)(CCC=C(C)C)C=C5 (stereo not shown) [Compound 18] | 27.37 ± 3.92 | 20.16 ± 0.90 | 1.42 ± 0.52 | 25.26% | – | – | – | – | – | – | – | – | – | – |
| COC(=O)/C(C)=C\CC12OC(C)(C)C3CC(C1=O)C1C4=C(Nc5nccn51)c1c(O)c5c(c(CC=C(C)C)c1OC432)OC(C)(CCC=C(C)C)C=C5 (stereo not shown) [Compound 9] | 23.58 ± 1.86 | 20.53 ± 1.16 | 0.56 ± 0.13 | 70.21** % | 1.03 (≈ 1.46 µM) | – | – | statistically significant | showed anti-proliferative effect | showed anti-proliferative effect | 3.38 | 1.03 (≈ 1.46 µM) | 6.18 | – |
| COC(=O)/C(C)=C\CC12OC(C)(C)C3CC(C1=O)C1C4=C(c5ccccc5C4=O)N(CCN)C4=C1C32Oc1c(CC=C(C)C)c2c(c(O)c14)C=CC(C)(CCC=C(C)C)O2 (stereo not shown) [Compound 22] | 25.77 ± 2.33 | 19.34 ± 0.81 | 0.88 ± 0.37 | 53.19** % | 3.62 (≈ 4.45 µM) | – | – | statistically significant | showed anti-proliferative effect | showed anti-proliferative effect | 4.89 | 3.62 (≈ 4.45 µM) | 4.73 | 3.26 (≈ 4.01 µM) |
| COC(=O)/C(C)=C\CC12OC(C)(C)[C@H]3C[C@@H](C=C4C(=O)c5c(OC(=O)c6ccc(O[C@@H]7O[C@@H]8COC(C)(C)O[C@H]8[C@H](O)[C@H]7O)cc6)c6c(c(CC=C(C)C)c5OC431)OC(C)(CCC=C(C)C)C=C6)C2=O (stereo partly shown) [Compound 5] | 27.39 ± 2.91 | 21.53 ± 1.77 | 1.08 ± 0.63 | 45** % | 35.6 (≈ 36.9 µM) | – | – | – | – | – | 7.73 | – | – | – |
| COC(=O)/C(C)=C\CC12OC(C)(C)C3CC(C1=O)C1C4=C(Nc5nc6ccccc6n51)c1c(O)c5c(c(CC=C(C)C)c1OC432)OC(C)(CCC=C(C)C)C=C5 (stereo not shown) [Compound 10] | 25.12 ± 4.64 | 20.32 ± 1.22 | 1.24 ± 0.73 | 39.36* % | 38.3 (≈ 50.6 µM) | – | – | – | showed anti-proliferative effect | showed anti-proliferative effect | 17.2 | – | – | – |
